Publication PMC8402547, “In Vitro and In Vivo Analysis of Ochratoxin A-Derived Glucuronides and Mercapturic Acids as Biomarkers of Exposure” (Toxins, 2021)

How the values were obtained:
[1] = In vitro incubation of OTA with liver S9 in the presence of GSH or NAC; assay type: in vitro ADME, rabbit; details: for Time-dependent formation from OTA: rabbit liver S9, with NADPH regenerating system, GSH or NAC 5 mM, t = 0, 60, 120 min; for Formation from OTA in the absence of the NADPH regenerating system: rabbit liver S9, no NADPH regenerating system
Method: (§1) Liver S9 fractions from rats (Sprague-Dawley, male, 97 donors, 20 mg/mL) and humans (mixed genders, 50 donors, 20 mg/mL) were obtained from XenoTech (Kansas City, USA). S9 fractions from Goettingen® minipigs and rabbits were prepared in-house based on a modified protocol from Hubbard et al. (1985). Rabbit liver (Blue Vienna x German Giant, female) was obtained from ImmonuGlobe (Himmelstadt, Germany), whereas minipig liver (Goettingen® minipig, male, 42.4 kg bw) was obtained from the University Goettingen, Department of Animal Science.
(§2) For analysis of OTA-derived GSH and NAC conjugates, liver S9 fractions (4 mg/mL) of rats, rabbits, minipigs and humans were incubated with OTA (0.1 mM), GSH or NAC (5 mM) and an NADPH regenerating system (NADP (5 mM), glucose-6-phosphate (5 mM), glucose-6-phosphate-dehydrogenase (1.25 units/mL)) in 100 mM phosphate-buffered saline (pH 7.4) in a total volume of 300 µL at 37 °C for two hours. Control incubations were carried out a) in the absence of GSH/NAC and b) in the absence of the NADPH regenerating system. Aliquots (100 µL) were removed immediately (t = 0) as well as after 60 (t = 60) and 120 (t = 120) minutes, and the enzymatic reaction was stopped by addition of 200 µL ACN and centrifugation (20 min, 4 °C, 20,000× g). The supernatants were removed and stored at −80 °C until further analysis.
(§3) LC–MS/MS analyses were performed on an Agilent 1100 series LC coupled to an API 2000/Q-Trap mass spectrometer (Applied Biosystems/MDS Sciex, Concord, Canada). Samples were injected into the LC–MS/MS system through an Agilent 1100 series autosampler. Separations were carried out on a ReproSil-Pur C18 AQ column (2 mm × 150 mm, 5 µm; Dr. Maisch; Ammerbuch, Germany). Gradient elution of OTA-derived metabolites was carried out with water + 0.1% formic acid (solvent A) and acetonitrile (solvent B). Initially, solvent A was held isocratic for 5 min at 100%, followed by a linear gradient to 95% B in 5 min. These conditions were held for further 5 min. Within 1 min, the gradient decreased linearly to 0% B and remained at initial conditions until the end of analysis (30 min). A flow rate of 0.2 mL/min was used. For each run, 10 µL of the respective sample were injected by the autosampler.
(§4) The API 2000/Q-Trap mass spectrometer was operated with a Turbo Ion Spray source in negative ion mode with a voltage of −4000 V. Spectral data were recorded with N2 as the heater gas at 450 °C and as the collision gas (CAD = −2) in multiple reaction monitoring mode (MRM).
(§5) In addition to MRM, constant neutral loss of 129 amu in the negative ion mode based on the characteristic fragmentation pattern of mercapturic acids was used to screen for N-acetyl-cysteine conjugates of OTA. Furthermore, constant neutral loss of 176 amu in positive ion mode based on the fragmentation pattern of glucuronic acid conjugates was used to screen for OTA glucuronides.

[2] = as above; assay type: in vitro ADME, rat; details: for Time-dependent formation from OTA: rat liver S9, with NADPH regenerating system, GSH or NAC 5 mM, t = 0, 60, 120 min; for Formation from OTA in the absence of the NADPH regenerating system: rat liver S9, no NADPH regenerating system
Method: as §1, §2, §3, §4, §5

[3] = as above; assay type: in vitro ADME, human; details: for Time-dependent formation from OTA: human liver S9, with NADPH regenerating system, GSH or NAC 5 mM, t = 0, 60, 120 min
Method: as §1, §2, §3, §4, §5

[4] = as above; assay type: in vitro ADME, minipig; details: for Time-dependent formation from OTA: minipig liver S9, with NADPH regenerating system, GSH or NAC 5 mM, t = 0, 60, 120 min; for Formation from OTA in the absence of the NADPH regenerating system: minipig liver S9, no NADPH regenerating system
Method: as §1, §2, §3, §4, §5

[5] = Direct LC–MS/MS analysis of OTA metabolites in urine of OTA-treated rats; assay type: in vivo, male F344/N rats; details: OTA up to 2 mg/kg bw, negative ionization mode
Method: Archived urine samples from previous repeated dose oral toxicity studies on OTA in male F344/N rats were used. The studies were performed according to national animal welfare regulations after authorization by the local authorities (Regierung von Unterfranken, AZ 621-2531.01-9/98 and AZ 54-2531.01-59/05).
14-day study: Male F344 rats (170–190 g) were purchased from Charles-River Laboratories, Sulzfeld, Germany. Animals had free access to water and standard diet (Altromin) and were kept under standard conditions (12 h day/night cycle, temperature 21–23 °C, humidity 45–55%). Rats were transferred to metabolic cages (Tecniplast Metabolic Cage—Rats Over 300 g; Tecniplast, Italy) for collection of urine 3 days prior to dosing. Animals were administered OTA dissolved in corn oil by oral gavage at 0, 0.25, 0.5, 1.0 and 2.0 mg/kg bw for 2 weeks (5 days per week). Urine was collected every 12 h on day 1 of treatment and every 24 h thereafter on ice, aliquoted and stored at −20 °C until further analysis.
90-day study: Male F344/N rats (6–7 weeks old) were purchased from Harlan-Winkelmann, Borchen, Germany. Animals were housed in groups of 5 in Macrolon type-4 cages and allowed free access to pelleted standard rat maintenance diet (SSNIFF, Soest, Germany) and tap water. After a week of acclimatization, rats (n = 5/dose) were exposed to OTA dissolved in corn oil by oral gavage at doses of 0, 21, 70 or 210 µg/kg bw for 2, 4 or 13 weeks (5 days per week). For urine collection, animals were transferred into metabolic cages (Tecniplast Metabolic Cage—Rats Over 300 g; Tecniplast, Italy) 48 h prior to necropsy and fasted for 20 h but allowed free access to tap water. Urine was collected for 24 h on ice, aliquoted and stored at −20 °C until further analysis.
Urine samples were diluted with acetonitrile (2:1), vortexed and cleared via centrifugation (4 °C, 15 min., 2000× g) to precipitate proteins. Of the resulting supernatant, 10 µL were injected into the LC–MS system and analyzed using the method described below.
as §3, §4, §5

C[C@H]1OC(=O)c2c(ccc(C(=O)N[C@@H](Cc3ccccc3)C(=O)O)c2O)[C@H]1O [4-hydroxy-OTB]
Time-dependent formation from OTA [1]: not observed | Time-dependent formation from OTA [2]: not observed | Time-dependent formation from OTA [3]: not observed | Time-dependent formation from OTA [4]: not observed

C[C@@H](O)Cc1c(Cl)cc(C(=O)N[C@@H](Cc2ccccc2)C(=O)O)c(O)c1C(=O)O [OP-OTA]
Formation from OTA in the absence of the NADPH regenerating system [1]: not formed | Detection in urine of OTA-treated rats by direct LC–MS/MS (MRM) [5]: traces | Formation from OTA in the absence of the NADPH regenerating system [2]: not formed | Time-dependent formation from OTA [2]: observed | Formation from OTA in the absence of the NADPH regenerating system ([3]; human liver S9, no NADPH regenerating system): not formed | Formation from OTA in the absence of the NADPH regenerating system [4]: not formed | Time-dependent formation from OTA [4]: observed

C[C@@H]1Cc2c(SC[C@H](NC(=O)CC[C@H](N)C(=O)O)C(=O)NCC(=O)O)cc(C(=O)N[C@@H](Cc3ccccc3)C(=O)O)c(O)c2C(=O)O1 [OTB-GSH]
Time-dependent formation from OTA [1]: not evident | Time-dependent formation from OTA [2]: not evident | Time-dependent formation from OTA [3]: not evident | Time-dependent formation from OTA [4]: not evident

CC(=O)NC(CSc1cc(C(=O)N[C@@H](Cc2ccccc2)C(=O)O)c(O)c2c1C[C@@H](C)OC2=O)C(=O)O (stereo partly drawn) [OTB-NAC]
Time-dependent formation from OTA [1]: not evident | Detection in urine of OTA-treated rats by direct LC–MS/MS (MRM) [5]: did not confirm the presence | Time-dependent formation from OTA [2]: not evident | Time-dependent formation from OTA [3]: not evident | Time-dependent formation from OTA [4]: not evident

C[C@@H]1Cc2ccc(C(=O)N[C@@H](Cc3ccccc3)C(=O)O)c(O)c2C(=O)O1 [OTB]
Time-dependent formation from OTA [1]: no time-dependent increase | Time-dependent formation from OTA [2]: no time-dependent increase | Time-dependent formation from OTA [3]: no time-dependent increase | Time-dependent formation from OTA [4]: no time-dependent increase

C[C@@H]1Cc2c(O)c(SC[C@H](NC(=O)CC[C@H](N)C(=O)O)C(=O)NCC(=O)O)c(C(=O)N[C@@H](Cc3ccccc3)C(=O)O)c(O)c2C(=O)O1 [OTHQ-GSH]
Formation from OTA in the absence of the NADPH regenerating system [1]: detected | Time-dependent formation from OTA [1]: not evident | Formation from OTA in the absence of the NADPH regenerating system [2]: detected | Time-dependent formation from OTA [2]: not evident | Time-dependent formation from OTA [3]: not evident | Formation from OTA in the absence of the NADPH regenerating system [4]: detected | Time-dependent formation from OTA [4]: not evident

CC(=O)NC(CSc1c(O)c2c(c(O)c1C(=O)N[C@@H](Cc1ccccc1)C(=O)O)C(=O)O[C@H](C)C2)C(=O)O (stereo partly drawn) [OTHQ-NAC]
Time-dependent formation from OTA [1]: not evident | Detection in urine of OTA-treated rats by direct LC–MS/MS (MRM) [5]: not detected | Time-dependent formation from OTA [2]: not evident | Time-dependent formation from OTA [3]: not evident | Time-dependent formation from OTA [4]: not evident

C[C@@H]1Cc2c(O)cc(C(=O)N[C@@H](Cc3ccccc3)C(=O)O)c(O)c2C(=O)O1 [OTHQ]
Time-dependent formation from OTA [1]: not observed | Detection in urine of OTA-treated rats by direct LC–MS/MS (MRM) [5]: not detected | Time-dependent formation from OTA [2]: not observed | Time-dependent formation from OTA [3]: not observed | Time-dependent formation from OTA [4]: not observed

C[C@@H]1Cc2c(Cl)cc(C(=O)O)c(O)c2C(=O)O1 [OTalpha]
Detection in urine of OTA-treated rats by direct LC–MS/MS (MRM) [5]: consistently found
